Results on five molecules are retold here after US20160016951A1 (Merck Patent GmbH, priority 2014, published 2016).

For this test, the target named is T1, CDK8 (CDK8/CycC) (Homo sapiens, UniProt P49336).
T1 construct: purchased Invitrogen PV4402
T1 sequence (P49336 whole entry): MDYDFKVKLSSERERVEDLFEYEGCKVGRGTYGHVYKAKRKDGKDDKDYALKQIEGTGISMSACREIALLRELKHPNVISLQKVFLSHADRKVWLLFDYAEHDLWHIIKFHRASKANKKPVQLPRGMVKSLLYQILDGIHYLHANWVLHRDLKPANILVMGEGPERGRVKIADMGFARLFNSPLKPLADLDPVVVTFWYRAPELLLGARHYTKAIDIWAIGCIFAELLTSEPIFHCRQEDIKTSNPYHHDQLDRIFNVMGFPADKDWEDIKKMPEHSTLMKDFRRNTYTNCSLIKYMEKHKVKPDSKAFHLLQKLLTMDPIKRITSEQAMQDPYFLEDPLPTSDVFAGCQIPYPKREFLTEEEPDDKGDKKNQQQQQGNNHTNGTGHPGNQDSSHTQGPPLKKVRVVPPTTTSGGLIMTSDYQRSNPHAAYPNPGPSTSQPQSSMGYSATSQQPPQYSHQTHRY
T1 sequence (P24863 whole entry partner): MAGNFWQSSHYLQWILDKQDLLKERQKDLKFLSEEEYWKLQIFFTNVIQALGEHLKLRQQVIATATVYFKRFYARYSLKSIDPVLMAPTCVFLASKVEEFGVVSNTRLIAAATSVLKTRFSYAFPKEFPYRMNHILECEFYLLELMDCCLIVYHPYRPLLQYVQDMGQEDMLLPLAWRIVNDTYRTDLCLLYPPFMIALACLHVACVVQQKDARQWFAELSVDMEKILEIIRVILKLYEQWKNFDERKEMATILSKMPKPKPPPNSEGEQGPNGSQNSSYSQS
The experiment in a line: FRET based Lanthascreen binding competition assay. To be noted: 5 nM CDK8/CycC, 10 nM Alexa647-Tracer, 1% DMSO, 60 min at RT; read-out: IC50 CDK8 binding. A digest of the protocol:
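CDK8 co-expressed with CycC and labelled through biotinylated anti-His antibody and streptavidin-Eu was preincubated with compound for 20 min at RT. An Alexa647 ATP-competitive probe was then added for 60 min at RT in the dark. Probe displacement was read as loss of TR-FRET (excitation 340 nm, emission 650 nm).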
The term IC50 denotes the concentration that gives 50% inhibition. Consider `O=C(c1ccc2cncc(-c3ccc4c(c3)CS(=O)(=O)N4)c2c1)N1CCC1` [Compound 192, azetidin-1-yl(4-(2,2-dioxido-1,3-dihydrobenzo[c]isothiazol-5-yl)isoquinolin-6-yl)methanone], for which the IC50 is less than 10 nM. For `N#Cc1ccc2cncc(-c3ccc4c(c3)CS(=O)(=O)N4)c2c1` [Compound 193, 4-(2,2-dioxido-1,3-dihydrobenzo[c]isothiazol-5-yl)isoquinoline-6-carbonitrile] the value was 10 to 100 nM; for `Nc1ncc(-c2ccc3c(c2)CS(=O)(=O)N3)c2cc(C(=O)N3CCC3)ccc12` [Compound 194, (1-amino-4-(2,2-dioxido-1,3-dihydrobenzo[c]isothiazol-5-yl)isoquinolin-6-yl)(azetidin-1-yl)methanone], less than 10 nM; for `Cn1cc(-c2ccc(-c3cncc4ccc(C(=O)N5CCC(F)(F)C5)cc34)cc2)cn1` [Compound 195, (3,3-difluoropyrrolidin-1-yl)(4-(4-(1-methyl-1H-pyrazol-4-yl)phenyl)isoquinolin-6-yl)methanone], 10 to 100 nM. For `Cn1cc(-c2ccc(-c3cnc(N)c4ccc(C(=O)N5CCC(F)(F)C5)cc34)cc2)cn1` [Compound 196, (1-amino-4-(4-(1-methyl-1H-pyrazol-4-yl)phenyl)isoquinolin-6-yl)(3,3-difluoropyrrolidin-1-yl)methanone] the value was 10 to 100 nM.
